Test results from ChEMBL document CHEMBL6114964, “Discovery of novel spirocyclic derivates as potent androgen receptor antagonists” (Bioorg Med Chem, 2025).

How the values were obtained:
Androgen receptor [1] = molecular target: T1, Androgen receptor (Homo sapiens, UniProt P10275); assay type: cell-based, HEK293
T1 sequence (P10275 whole entry): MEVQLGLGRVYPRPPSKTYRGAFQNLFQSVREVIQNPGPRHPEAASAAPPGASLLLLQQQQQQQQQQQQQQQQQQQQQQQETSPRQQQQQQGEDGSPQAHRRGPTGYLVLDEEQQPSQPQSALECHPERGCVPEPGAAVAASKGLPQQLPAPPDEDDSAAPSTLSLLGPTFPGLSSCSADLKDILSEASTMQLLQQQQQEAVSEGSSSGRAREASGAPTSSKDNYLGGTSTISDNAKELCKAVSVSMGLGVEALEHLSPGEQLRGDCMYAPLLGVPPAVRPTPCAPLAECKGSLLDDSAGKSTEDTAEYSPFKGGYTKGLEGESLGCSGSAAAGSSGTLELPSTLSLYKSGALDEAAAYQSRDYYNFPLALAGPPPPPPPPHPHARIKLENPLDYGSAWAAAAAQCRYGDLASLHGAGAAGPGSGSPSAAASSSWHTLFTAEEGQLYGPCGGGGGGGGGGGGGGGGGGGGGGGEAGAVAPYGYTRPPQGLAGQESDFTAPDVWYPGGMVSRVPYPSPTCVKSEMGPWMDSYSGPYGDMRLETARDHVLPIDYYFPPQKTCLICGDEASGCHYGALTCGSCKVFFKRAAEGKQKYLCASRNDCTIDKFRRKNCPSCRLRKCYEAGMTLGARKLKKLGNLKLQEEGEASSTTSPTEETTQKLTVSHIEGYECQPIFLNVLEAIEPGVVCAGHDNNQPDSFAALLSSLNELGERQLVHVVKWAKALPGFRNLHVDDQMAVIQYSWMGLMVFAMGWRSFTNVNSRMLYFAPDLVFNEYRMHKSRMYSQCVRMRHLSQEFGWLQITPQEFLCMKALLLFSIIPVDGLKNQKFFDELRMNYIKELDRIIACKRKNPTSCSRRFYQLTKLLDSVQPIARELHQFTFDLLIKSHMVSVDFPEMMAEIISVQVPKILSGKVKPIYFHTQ

cells = assay type: functional, cell-based; conditions: Homo sapiens, LNCaP-EnzR, 168 h
Description: Antiproliferative activity against human LNCaP-EnzR cells assessed as inhibition of cell viability incubated for 7 days by Celltiter-Glo assay

LNCaP = experiment: cells; assay type: functional, cell-based; conditions: Homo sapiens, 168 h
Description: Antiproliferative activity against human LNCaP cells incubated for 7 days in presence of R1881 by Celltiter-Glo assay

in vitro [2] = conditions: human, microsomes
in vitro [3] = conditions: human, microsomes; remark: listed apart in the source
Description: Metabolic stability in human liver microsomes assessed as parent compound remaining at 1 uM measured after 60 mins in presence of NADPH by LC-MS/MS analysis

Androgen receptor [4] = molecular target: Androgen receptor (Homo sapiens, UniProt P10275, F877L); assay type: cell-based, HEK293
Androgen receptor [5] = molecular target: Androgen receptor (Homo sapiens, UniProt P10275, W742L); assay type: cell-based, HEK293
in vitro [6] = conditions: mouse, microsomes
Description: Metabolic stability in mouse liver microsomes assessed as parent compound remaining at 1 uM measured after 60 mins in presence of NADPH by LC-MS/MS analysis

in vitro [7] = conditions: human, microsomes; remark: listed apart in the source
CWR22R = experiment: cells; assay type: functional, cell-based; conditions: Homo sapiens, 22Rv1, 168 h
Description: Antiproliferative activity against human 22Rv1 cells assessed as inhibition of cell viability incubated for 7 days by Celltiter-Glo assay

[8] = mouse, microsomes, 1 h, 1 µM

SMILES | IC50 (Androgen receptor [1]) [nM] | IC50 (LNCaP) [nM] | also measured
N#Cc1ccc(CN2CC3(CCN(c4ccc(C#N)c(C(F)(F)F)c4)C3)C2)cc1 | 313 | – | –
CC(O)c1cc(C(=O)N[C@@H](C)Cn2ccc(-c3ccc(C#N)c(Cl)c3)n2)n[nH]1 (some centres undefined) [DAROLUTAMIDE] | – | – | IC50 (cells): 31200 nM
N#Cc1ccc(-c2ccc(C(=O)NC3CC4(CCN(c5ccc(C#N)c(C(F)(F)F)c5)C4)C3)cc2)cc1F (centres undefined) | – | 190 | IC50 (cells): 1190 nM; half-life at 1 h, 1 µM (in vitro [2]): 2.57 h; remaining at 1 h, 1 µM (in vitro [3]): 76.8%; IC50 (Androgen receptor [4]): > 10000 nM; IC50 (Androgen receptor [5]): 116 nM; remaining at 1 h, 1 µM (in vitro [6]): 100%; microsomal CLint at 1 h, 1 µM (in vitro [7]): 9 µL/min/mg; IC50 (CWR22R): > 50000 nM
COc1ccc(C(=O)NC2CC3(CCN(c4ccc(C#N)c(C(F)(F)F)c4)C3)C2)cc1 (centres undefined) | 25.1 | 920 | –
Cc1ccc(C(=O)NC2CC3(CCN(c4ccc(C#N)c(C(F)(F)F)c4)C3)C2)cc1 (centres undefined) | – | 1260 | –
N#Cc1ccc(N2CCC3(CC(NC(=O)c4ccc(CO)cc4)C3)C2)cc1C(F)(F)F (centres undefined) | 37.8 | 1990 | –
CN1CCN(c2ccc(C(=O)NC3CC4(CCN(c5ccc(C#N)c(C(F)(F)F)c5)C4)C3)cc2)CC1 (centres undefined) | 24.6 | 3570 | –
Cc1ccc(C(=O)NC2CC3(CCN(c4ccc(C#N)c(C(F)(F)F)c4)C3)C2)cn1 (centres undefined) | 33.2 | 2570 | –
CC(O)c1cc(C(=O)NC2CC3(CCN(c4ccc(C#N)c(C(F)(F)F)c4)C3)C2)n[nH]1 (centres undefined) | – | > 100000 | –
N#Cc1ccc(N2CCC3(CC(NC(=O)c4ccccc4)C3)C2)cc1C(F)(F)F (centres undefined) | 43.7 | – | –
N#Cc1ccc(N2CCC3(CC(NC(=O)c4ccc([N+](=O)[O-])cc4)C3)C2)cc1C(F)(F)F (centres undefined) | – | 3280 | –
C[C@](O)(CN1CCN(c2ccc(-c3ccc(C#N)c(F)c3)cc2)CC1)C(=O)Nc1ccc(C#N)c(C(F)(F)F)c1 | – | – | IC50 (cells): 3290 nM; half-life at 1 h, 1 µM (in vitro [2]): 0.0825 h; remaining at 1 h, 1 µM (in vitro [3]): 0.74%; CLH [8]: 282 µL/min; remaining at 1 h, 1 µM (in vitro [6]): 12.2%; microsomal CLint at 1 h, 1 µM (in vitro [7]): 252 µL/min/mg; IC50 (CWR22R): 2340 nM
N#Cc1ccc(N2CCC3(CC(NC(=O)c4ccc(-c5ccc(OCCO)cc5)cc4)C3)C2)cc1C(F)(F)F (centres undefined) | – | 650 | –
CNC(=O)c1ccc(C(=O)NC2CC3(CCN(c4ccc(C#N)c(C(F)(F)F)c4)C3)C2)cc1F (centres undefined) | 26.3 | 2260 | –
N#Cc1ccc(N2CCC3(CC(NC(=O)c4ccc(C(=O)O)cc4)C3)C2)cc1C(F)(F)F (centres undefined) | – | > 50000 | –
COC(=O)c1ccc(C(=O)NC2CC3(CCN(c4ccc(C#N)c(C(F)(F)F)c4)C3)C2)cc1 (centres undefined) | – | 6460 | –
N#Cc1ccc(N2CCC3(CC(NC(=O)c4ccc(F)cc4)C3)C2)cc1C(F)(F)F (centres undefined) | – | 2230 | –
N#Cc1ccc(-c2ccc(C(=O)NC3CC4(CCN(c5ccc(C#N)c(C(F)(F)F)c5)C4)C3)cc2)cc1 (centres undefined) | 29.8 | 80 | IC50 (cells): 1140 nM; IC50 (Androgen receptor [5]): 160 nM; IC50 (CWR22R): > 50000 nM
N#Cc1ccc(NC(=O)C2CC3(CCN(c4ccc(C#N)c(C(F)(F)F)c4)C3)C2)cc1 (centres undefined) | – | 4370 | –
C[C@](O)(Cn1ccc2cc(F)ccc21)C(=O)Nc1ccc(C#N)c(C(F)(F)F)c1 | – | – | IC50 (cells): 10900 nM; IC50 (CWR22R): 9980 nM
